Test results taken from US10428044B2, “3-amino-1,5,6,7-tetrahydro-4H-indol-4-ones” (Bayer Pharma Aktiengesellschaft, priority 2014, dated 2019).
pIC50: −log10 of the molar value.

Biological target: (recombinant) catalytic domain of human Bub1 (amino acids 704-1085) (Homo sapiens (Human), UniProt O43683)
Test: Bub1 kinase assay (TR-FRET)
Type: biochemical
Conditions: ATP 10 μM final, peptide substrate 1 μM final, 60 min at 22° C., read-out: Biological Assay: Bub1 kinase assay median IC50
Procedure: Examples were tested in selected biological assays one or more times. When tested more than once, data are reported as either average values or as median values, wherein • the average value, also referred to as the arithmetic mean value, represents the sum of the values obtained divided by the number of times tested, and • the median value represents the middle number of the group of values when ranked in ascending or descending order. If the number of values in the data set is odd, the median is the middle value. If the number of values in the data set is even, the median is the arithmetic mean of the two middle values.
To this end, 100-fold concentrated compound solutions (in DMSO) were previously prepared by serial dilution (1:3.4) of 2 mM stocks in a clear low volume 384-well source microtiter plate (Greiner Bio-One, Frickenhausen, Germany), from which 50 nl of compounds were transferred into a black low volume test microtiter plate from the same supplier. […] The resulting mixture (5 μL final volume) was incubated at 22° C. during 60 min., and the reaction was stopped by the addition of 5 μL of an aqueous EDTA-solution (50 mM EDTA, in 100 mM HEPES pH 7.5 and 0.2% (w/v) bovine serum albumin) which also contained the TR-FRET detection reagents (0.2 μM streptavidin-XL665 [Cisbio Bioassays, Codolet, France] and 1 nM anti-phosho-Serine antibody [Merck Millipore, cat. #35-002] and 0.4 nM LANCE EU-W1024 labeled anti-mouse IgG antibody [Perkin-Elmer, product no. AD0077, alternatively a Terbium-cryptate-labeled anti-mouse IgG antibody from Cisbio Bioassays can be used]). The stopped reaction mixture was further incubated 1 h at 22° C. in order to allow the formation of complexes between peptides and detection reagents. Subsequently, the amount of product was evaluated by measurement of the resonance energy transfer from the Eu-chelate-antibody complex recognizing the Phosphoserine residue to the streptavidin-XL665 bound to the biotin moiety of the peptide. […] The data were normalised using two sets of control wells for high- (=enzyme reaction without inhibitor=0%=Minimum inhibition) and low- (=all assay components without enzyme=100%=Maximum inhibition) Bub1 activity. IC50 values were calculated by fitting the normalized inhibition data to a 4-parameter logistic equation (Minimum, Maximum, IC50, Hill; Y=Max+(Min−Max)/(1+(X/IC50)Hill)).

Chain of (recombinant) catalytic domain of human Bub1 (amino acids 704-1085) (O43683 704-1085): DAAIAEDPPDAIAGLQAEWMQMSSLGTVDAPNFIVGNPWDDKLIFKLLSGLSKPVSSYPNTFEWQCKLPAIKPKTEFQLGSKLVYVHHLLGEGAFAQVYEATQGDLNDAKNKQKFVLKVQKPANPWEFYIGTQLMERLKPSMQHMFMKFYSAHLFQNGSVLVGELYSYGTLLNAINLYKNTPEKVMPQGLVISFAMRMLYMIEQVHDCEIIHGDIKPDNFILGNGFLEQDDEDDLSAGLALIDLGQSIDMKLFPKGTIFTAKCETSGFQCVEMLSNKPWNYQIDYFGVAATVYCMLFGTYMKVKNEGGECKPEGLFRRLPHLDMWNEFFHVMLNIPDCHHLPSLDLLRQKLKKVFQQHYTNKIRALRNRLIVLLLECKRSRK

Row | Compound | pIC50
1 | CCn1c2c(c(Nc3ccccc3)c1-c1ccncc1Cl)C(=O)CCC2 [Example 177, 2-(3-chloropyridin-4-yl)-1-ethyl-3-(phenylamino)-1,5,6,7-tetrahydro-4H-indol-4-one] | 5.25
2 | CC(C)C1CC(=O)c2c([nH]c(-c3ccncc3)c2Nc2ccccc2)C1 (single isomer, unassigned) [Example 17, 3-(phenylamino)-6-(propan-2-yl)-2-(pyridin-4-yl)-1,5,6,7-tetrahydro-4H-indol-4-one] | 8.39
3 | CCCOc1cccc(Nc2c(-c3ccncc3)[nH]c3c2C(=O)CC(C)(C)C3)c1 [Example 108, 6,6-dimethyl-3-[(3-propoxyphenyl)amino]-2-(pyridin-4-yl)-1,5,6,7-tetrahydro-4H-indol-4-one] | 6.98
4 | COc1cc(C(=O)Nc2cc(-c3[nH]c4c(c3Nc3ccccc3)C(=O)CCC4)ccn2)ccc1F [Example 453, 4-fluoro-3-methoxy-N-{4-[4-oxo-3-(phenylamino)-4,5,6,7-tetrahydro-1H-indol-2-yl]pyridin-2-yl}benzamide] | 8.00
5 | O=C(CCCc1ccccc1)Nc1cc(-c2[nH]c3c(c2Nc2ccccc2)C(=O)CCC3)ccn1 [Example 236, N-{4-[4-oxo-3-(phenylamino)-4,5,6,7-tetrahydro-1H-indol-2-yl]pyridin-2-yl}-4-phenylbutanamide] | 8.08
6 | COc1ccc(OC)c(Nc2c(-c3ccncc3)[nH]c3c2C(=O)CC(C)(C)C3)c1 [Example 76, 3-[(2,5-dimethoxyphenyl)amino]-6,6-dimethyl-2-(pyridin-4-yl)-1,5,6,7-tetrahydro-4H-indol-4-one] | 5.37
7 | CC1(C)CC(=O)c2c([nH]c(-c3ccnc(F)c3)c2Nc2cccc(F)c2)C1 [Example 24, 3-[(3-fluorophenyl)amino]-2-(2-fluoropyridin-4-yl)-6,6-dimethyl-1,5,6,7-tetrahydro-4H-indol-4-one] | 7.69
8 | CC(C)(C)NC(=S)Nc1cc(-c2[nH]c3c(c2Nc2ccccc2)C(=O)CCC3)ccn1 [Example 396, 1-tert-butyl-3-{4-[4-oxo-3-(phenylamino)-4,5,6,7-tetrahydro-1H-indol-2-yl]pyridin-2-yl}thiourea] | 5.61
9 | COc1cc(Nc2c(-c3ccncc3)[nH]c3c2C(=O)CC(C)(C)C3)ccc1F [Example 110, 3-[(4-fluoro-3-methoxyphenyl)amino]-6,6-dimethyl-2-(pyridin-4-yl)-1,5,6,7-tetrahydro-4H-indol-4-one] | 6.63
10 | CCCOc1cnccc1-c1[nH]c2c(c1Nc1ccccc1)C(=O)CC(C)(C)C2 [Example 405, 6,6-dimethyl-3-(phenylamino)-2-(3-propoxypyridin-4-yl)-1,5,6,7-tetrahydro-4H-indol-4-one] | 8.08
11 | O=C1CCCc2[nH]c(-c3ccnc(NC(=O)C4CC4)c3)c(Nc3ccc(F)cc3)c21 [Example 314, N-(4-{3-[(4-fluorophenyl)amino]-4-oxo-4,5,6,7-tetrahydro-1H-indol-2-yl}pyridin-2-yl)cyclopropanecarboxamide] | 7.32
12 | CC1(C)CC(=O)c2c([nH]c(-c3ccncc3)c2Nc2ccc(S(N)(=O)=O)cc2)C1 [Example 432, 4-{[6,6-dimethyl-4-oxo-2-(pyridin-4-yl)-4,5,6,7-tetrahydro-1H-indol-3-yl]amino}benzenesulfonamide] | 5.63
13 | CC(=O)Nc1cc(-c2[nH]c3c(c2Nc2ccc(F)cc2)C(=O)CC(C(C)C)C3)ccn1 (stereo not shown) [Example 321, N-{4-[3-[(4-fluorophenyl)amino]-4-oxo-6-(propan-2-yl)-4,5,6,7-tetrahydro-1H-indol-2-yl]pyridin-2-yl}acetamide] | 7.95
14 | O=C1CC(C(F)(F)F)Cc2[nH]c(-c3ccncc3)c(Nc3cccc(F)c3)c21 (stereo not shown) [Example 43, 3-[(3-fluorophenyl)amino]-2-(pyridin-4-yl)-6-(trifluoromethyl)-1,5,6,7-tetrahydro-4H-indol-4-one] | 8.02
15 | CC1(C)CC(=O)c2c([nH]c(-c3ccncc3)c2Nc2ccccc2Oc2ccccc2)C1 [Example 159, 6,6-dimethyl-3-[(2-phenoxyphenyl)amino]-2-(pyridin-4-yl)-1,5,6,7-tetrahydro-4H-indol-4-one] | 5.97
16 | CC1(C(=O)Nc2cc(-c3[nH]c4c(c3Nc3ccccc3)C(=O)CCC4)ccn2)CC1 [Example 228, 1-methyl-N-{4-[4-oxo-3-(phenylamino)-4,5,6,7-tetrahydro-1H-indol-2-yl]pyridin-2-yl}cyclopropanecarboxamide] | 7.25

Row | Compound | pIC50
17 | CC(C)C1CC(=O)c2c([nH]c(-c3ccnc(N)c3)c2Nc2cccc(F)c2)C1 (stereo not shown) [Example 50, 2-(2-aminopyridin-4-yl)-3-[(3-fluorophenyl)amino]-6-(propan-2-yl)-1,5,6,7-tetrahydro-4H-indol-4-one] | 7.44
18 | O=C1CCCc2[nH]c(-c3ccnc(NCCCCc4ccccc4)c3)c(Nc3ccccc3)c21 [Example 484, 3-(phenylamino)-2-{2-[(4-phenylbutyl)amino]pyridin-4-yl}-1,5,6,7-tetrahydro-4H-indol-4-one] | 6.04
19 | O=C1CCCc2[nH]c(-c3ccncc3OCC(F)(F)F)c(Nc3ccccc3)c21 [Example 458, 3-(phenylamino)-2-[3-(2,2,2-trifluoroethoxy)pyridin-4-yl]-1,5,6,7-tetrahydro-4H-indol-4-one] | 7.10
20 | CCn1c2c(c(Nc3ccccc3)c1-c1ccncc1)C(=O)CC(C)(C)C2 [Example 181, 1-ethyl-6,6-dimethyl-3-(phenylamino)-2-(pyridin-4-yl)-1,5,6,7-tetrahydro-4H-indol-4-one] | 7.49
21 | CC(C)c1cccc(Nc2c(-c3ccncc3)[nH]c3c2C(=O)CC(C)(C)C3)c1 [Example 85, 6,6-dimethyl-3-{[3-(propan-2-yl)phenyl]amino}-2-(pyridin-4-yl)-1,5,6,7-tetrahydro-4H-indol-4-one] | 7.13
22 | O=C1CCCc2[nH]c(-c3ccncc3)c(Nc3ccc(F)cc3)c21 [Example 42, 3-[(4-fluorophenyl)amino]-2-(pyridin-4-yl)-1,5,6,7-tetrahydro-4H-indol-4-one] | 7.64
23 | COC(=O)Nc1cc(-c2[nH]c3c(c2Nc2cccc(F)c2)C(=O)CCC3)ccn1 [Example 312, methyl (4-{3-[(3-fluorophenyl)amino]-4-oxo-4,5,6,7-tetrahydro-1H-indol-2-yl}pyridin-2-yl)carbamate] | 7.70
24 | CC1(C)CC(=O)c2c([nH]c(-c3ccncc3)c2Nc2cccc(-c3ccccc3)n2)C1 [Example 423, 6,6-dimethyl-3-[(6-phenylpyridin-2-yl)amino]-2-(pyridin-4-yl)-1,5,6,7-tetrahydro-4H-indol-4-one] | 7.57
25 | Cn1ccnc1COCC(=O)Nc1cc(-c2[nH]c3c(c2Nc2ccccc2)C(=O)CCC3)ccn1 [Example 493, 2-[(1-methyl-1H-imidazol-2-yl)methoxy]-N-{4-[4-oxo-3-(phenylamino)-4,5,6,7-tetrahydro-1H-indol-2-yl]pyridin-2-yl}acetamide] | 8.06
26 | O=C1CCCc2[nH]c(-c3ccnc(NC(=O)[C@H]4C[C@H]4F)c3)c(Nc3ccccc3)c21 [Example 253, (1R,2R)-2-fluoro-N-{4-[4-oxo-3-(phenylamino)-4,5,6,7-tetrahydro-1H-indol-2-yl]pyridin-2-yl}cyclopropanecarboxamide] | 7.63
27 | CC1(C)CC(=O)c2c([nH]c(-c3ccncc3)c2Nc2cccc([N+](=O)[O-])c2)C1 [Example 16, 6,6-dimethyl-3-[(3-nitrophenyl)amino]-2-(pyridin-4-yl)-1,5,6,7-tetrahydro-4H-indol-4-one] | 7.57
28 | O=C(Cc1ccccc1)Nc1cc(-c2[nH]c3c(c2Nc2ccccc2)C(=O)CCC3)ccn1 [Example 233, N-{4-[4-oxo-3-(phenylamino)-4,5,6,7-tetrahydro-1H-indol-2-yl]pyridin-2-yl}-2-phenylacetamide] | 7.36
29 | Cc1ccc(Nc2c(-c3ccncc3)[nH]c3c2C(=O)CC(C)(C)C3)cc1Cl [Example 92, 3-[(3-chloro-4-methylphenyl)amino]-6,6-dimethyl-2-(pyridin-4-yl)-1,5,6,7-tetrahydro-4H-indol-4-one] | 6.53
30 | O=C(NCc1ccco1)Nc1cc(-c2[nH]c3c(c2Nc2ccccc2)C(=O)CCC3)ccn1 [Example 384, 1-(furan-2-ylmethyl)-3-{4-[4-oxo-3-(phenylamino)-4,5,6,7-tetrahydro-1H-indol-2-yl]pyridin-2-yl}urea] | 6.95
31 | Cn1nccc1COCC(=O)Nc1cc(-c2[nH]c3c(c2Nc2ccccc2)C(=O)CCC3)ccn1 [Example 351, 2-[(1-methyl-1H-pyrazol-5-yl)methoxy]-N-{4-[4-oxo-3-(phenylamino)-4,5,6,7-tetrahydro-1H-indol-2-yl]pyridin-2-yl}acetamide] | 8.21
